The record followed here is ChEMBL document CHEMBL3414446, “Neoechinulin B and its analogues as potential entry inhibitors of influenza viruses, targeting viral hemagglutinin” (Eur J Med Chem, 2015).

In assay [1] the test system is Influenza A virus. The assay can be described thus: Antiviral activity against OSV-resistant influenza A virus A/LiaoNing-ZhenXing/1109/2010 (H1N1) strain. In kind it is functional, organism-based.
Assay [2] concerns Influenza A virus. Briefly: Antiviral activity against amantadine and ribavirin-resistant influenza A virus A/HuNan-huHui/1222/2010 (H3N2) strain. It is filed as functional, organism-based.

Where only a bound is given, the exact number is not on record here.

For orientation: IC50 means the point on the concentration scale where inhibition reaches its midpoint. A low value points to greater potency. `CCOC(=O)C1=C[C@@H](OC(CC)CC)[C@H](NC(C)=O)[C@@H](N)C1` [OSELTAMIVIR]: the IC50 was more than 200000 nM with Influenza A virus [1] and more than 20.5 µM with Influenza A virus [2].

In the case of `C=CC(C)(C)c1[nH]c2ccccc2c1/C=c1\[nH]c(=O)c(=C)[nH]c1=O` [NEOECHINULIN B], the results for the IC50 in the assay with Influenza A virus [1] and with Influenza A virus [2] were 16900 nM and 22.2 µM, respectively.

For the compound `NC(=O)c1ncn([C@@H]2O[C@H](CO)[C@@H](O)[C@H]2O)n1` [RIBAVIRIN], the IC50 in the assay on Influenza A virus [1] is 1050 nM; in the assay with Influenza A virus [2], more than 150 µM.

Consider `NC12CC3CC(CC(C3)C1)C2` [AMANTADINE], for which the IC50 was 820 nM in the assay on Influenza A virus [1] and more than 200 µM in the assay on Influenza A virus [2].
